{"source": "patent US20100209480A1", "about": "“GALENICAL FORMULATIONS OF ORGANIC COMPOUNDS” (priority 2007, published 2010)", "origin": "cited, not measured here", "conditions": "drug substance", "data": [{"smiles": "COCCCOc1cc(C[C@@H](C[C@H](N)[C@@H](O)C[C@H](C(=O)NCC(C)(C)C(N)=O)C(C)C)C(C)C)ccc1OC", "note": "[Aliskiren, 2(S),4(S),5(S),7(S)—N-(3-amino-2,2-dimethyl-3-oxopropyl)-2,7-di(1-methylethyl)-4-hydroxy-5-amino-8-[4-methoxy-3-(3-methoxy-propoxy)phenyl]-octanamide]", "values": [{"measurement": "Hygroscopicity", "result": "highly hygroscopic"}]}]}
